The source of these data is patent publication US9242937B2, “Pharmaceutically active disubstituted pyridine derivatives” (Bayer Intellectual Property GmbH, priority 2011, dated 2016).

One test concerns the target T1, CDK9 (Homo sapiens, UniProt P50750).
T1 construct: purchased Invitrogen
Nature of the test: Lance Ultra KinaSelect Assay, CDK9. Type of test: biochemical. The note with it: ULight MBP substrate; cyclin partner not stated in Table 5; read-out: CDK9 LANCE assay (activity range), IC50. The protocol: (§1) This protocol describes how the Lance Ultra KinaSelect Assay was performed to determine half maximal inhibitory concentration (IC50) of compounds of general formula (I) and CDK/Cyclin complexes. The principle behind this enzymatic assay is based upon the phosphorylation of the ULight-Peptide Substrat. It is detected by using a specific EU-labeled anti-phospho peptide antibody. The binding of the Eu-labeled anti-phospho peptide antibody to the phosphorylated ULight labeled peptide gives rise to a FRET-signal. Binding of an inhibitor to the kinase prevents phosphorylation of the ULight-MBP Substrat, resulting in a loss of FRET.
(§2) The compounds of general formula (I) summarized in Table 5 were diluted from a 10 mM DMSO stock solution 1:10 in a total volume of 15 μL DMSO. This compound predilution was then serial diluted 1:3 over 8 steps in DMSO and briefly spun down. Each compound solution was now diluted 1:20 in Enzymatic Buffer (HEPES: 50 mM, pH: 7.5; MgCl2: 10 mM; EGTA: 1 mM; DTT: 2 mM; Tween-20: 0.01%), mixed thoroughly and spun down. For every sample, 2 μL of the diluted compound were mixed with 6 μL CDK/Cyclin/Substrat solution and 2 μL ATP solution in a well of a small volume 384 well plate (Corning Incorporated, Corning, N.Y., USA; order no. 3673). The CDK/Cyclin was diluted to the appropriate concentration (see Table 3) and the ATP concentration was adjusted to its […] for the CDK/Cyclin, which was 3 μM for CDK2/Cyclin A, 20 μM for CDK1/Cyclin B1, 25 μM for CDK7/Cyclin H and CDK9/Cyclin T1, 55 μM for CDK6/Cyclin D3, 90 μM for CDK4/Cyclin D1 and 125 μM for CDK9/Cyclin K. For negative controls, in each well 2 μL of DMSO solution (1% final DMSO assay concentration) was mixed with 6 μL substrate solution (50 nM ULight MBP final assay concentration) and 2 μL ATP solution (appropriate final concentration see Table 3). For positive controls, in each well 2 μL of DMSO solution (1% final DMSO assay concentration) was mixed with 6 μL CDK/Cyclin/Substrat (appropriate final concentration see Table 3) and 2 μL Tracer ATP solution (appropriate final concentration see Table 3). Positive and negative controls were calculated from at least 8 different sample wells. The 384 well plates were mixed in a Teleshaker plate mixer (Beckman Coulter, Brea, Calif., USA) at 2000 rpm for 40 sec, and incubated for 1 h at room temperature. Before reading, 10 μL the detection buffer (Lance Detection Buffer 1×; EDTA: […]; Eu-Anti-P-MBP: see Table 3) was added. The FRET signal was measured at 340 nm excitation, 665 nm and 615 nm emission (for the kinase tracer and LanthaScreen Eu-AB, respectively) with an Envision spectrophotometer (Perkin Elmer, Waltham, Mass., USA) with 50 μs delay and 300 μs integration time. IC50 values were determined from the sigmoidal dose response curves with the software Quattro Workflow (Quattro GmbH, Munich, Germany).

Test [1] deals with NF-kappaB reporter gene activation in HEK293 cells. Kind of test: NF-kappaB reporter assay. Type of test: cell-based. The note with it: Homo sapiens, pNFkBluc reporter, 20 ng/ml TNF alpha, 5 h, read-out: NF-kappaB activation (activity range), IC50. How it is done: Cells were maintained in RPMI cell culture medium+glutamine (PAN Biotech GmbH, Aidenbach, Germany) supplemented with 10% fetal calf serum (PAA Laboratories GmbH, Pasching, Austria) and grown at 37° C., 5% CO2. HEK293 cells grown to 50% confluence were transfected with the Amaxa® Cell Line Nucleofector® Kit V (Lonza, Basel, Switzerland, catalog # VCA-1003). Transfections were performed according to manufacturer's optimized protocol for transfection of HEK293 cells. In brief, 2×10^5 cells were transfected with 5 μg highly purified plasmid DNA. Cells were transfected with a NF-kappa B reporter plasmid (pNFkBluc), pTALluc for control, or pMAXGFP for transfection control. After transfection, cells were taken up in 500 μL RPMI1640 cell culture medium, incubated for 1 h at 37° C., and 4.5 ml DMEM without phenol red were added per transfection. Transfected cells were seeded in 96 well plates (Greiner Bio-One, Frickenhausen, Germany, catalog #655098) with 100 μL cell suspension per well and incubated for 48 h. To each well, 100 μL DMEM with 2× concentrated compound diluted from 10 mM DMSO stocks, or 100 μL DMEM with 0.4% DMSO for control wells, was added. The compounds of general formula (I) summarized in Table 6 were used in this assay. Cells were stimulated with 20 ng/ml TNF alpha, and plates were incubated for 5 h at 37° C./5% CO2. Cell culture supernatants were removed to leave 100 μl medium per well, followed by addition of 100 μl Bright Glo luciferase assay reagent (Promega, Madison, Wis., USA, catalog # E2620), and shaking for 5 minutes in the dark. Luminescence was measured with a Victor Photospectrometer (Perkin Elmer, Waltham, Mass., USA). IC50 values were calculated with the software Excel Fit (IDBS, Guildford, UK) from 2-fold dilution series comprising at least 10 concentrations in duplicates.
For orientation: Reporter assays use an easily measured gene product as a stand-in for the process of interest.

The next test addresses T2, CDK7/CyclinH/MAT1 (Homo sapiens, UniProt P50613).
T2 construct: purchased Carna Biosciences
Kind of test: Lance Ultra KinaSelect Assay, CDK7. The format is biochemical. The note with it: ULight MBP substrate, ATP 25 μM; read-out: CDK7 LANCE assay (activity range), IC50. How it is done: as §1, §2

Usually IC50 stands for the concentration that gives 50% inhibition.

Molecules are shown by their SMILES.

T1 sequence (P50750 whole entry): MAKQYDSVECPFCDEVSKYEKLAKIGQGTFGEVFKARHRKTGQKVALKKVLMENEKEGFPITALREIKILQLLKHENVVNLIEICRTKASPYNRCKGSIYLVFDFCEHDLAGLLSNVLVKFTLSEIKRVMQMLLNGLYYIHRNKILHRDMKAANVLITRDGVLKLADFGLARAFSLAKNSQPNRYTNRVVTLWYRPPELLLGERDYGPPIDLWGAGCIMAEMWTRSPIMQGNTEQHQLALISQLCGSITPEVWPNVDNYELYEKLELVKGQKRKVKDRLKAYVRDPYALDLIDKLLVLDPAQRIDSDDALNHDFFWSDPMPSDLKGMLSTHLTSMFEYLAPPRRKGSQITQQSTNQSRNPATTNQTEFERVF
T2 sequence (P50613 whole entry): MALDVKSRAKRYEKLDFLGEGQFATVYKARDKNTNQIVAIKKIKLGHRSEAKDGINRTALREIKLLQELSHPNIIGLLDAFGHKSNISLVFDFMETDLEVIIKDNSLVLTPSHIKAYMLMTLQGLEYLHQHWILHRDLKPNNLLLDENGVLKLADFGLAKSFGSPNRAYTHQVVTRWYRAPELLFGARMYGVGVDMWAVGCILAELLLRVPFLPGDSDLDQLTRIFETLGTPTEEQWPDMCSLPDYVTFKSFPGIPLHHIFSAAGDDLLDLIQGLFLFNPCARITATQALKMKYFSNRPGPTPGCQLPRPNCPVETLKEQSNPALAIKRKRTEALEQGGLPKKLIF
T2 sequence (P51946 whole entry partner): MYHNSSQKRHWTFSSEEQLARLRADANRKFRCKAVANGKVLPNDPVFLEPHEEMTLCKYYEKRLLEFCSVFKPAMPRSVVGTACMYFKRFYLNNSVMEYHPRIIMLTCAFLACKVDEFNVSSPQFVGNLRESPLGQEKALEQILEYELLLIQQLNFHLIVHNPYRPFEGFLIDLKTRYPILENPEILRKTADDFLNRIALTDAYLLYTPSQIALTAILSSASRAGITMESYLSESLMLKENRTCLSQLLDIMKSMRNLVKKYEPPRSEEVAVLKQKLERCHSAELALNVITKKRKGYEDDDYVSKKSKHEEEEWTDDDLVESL
T2 sequence (P51948 whole entry partner): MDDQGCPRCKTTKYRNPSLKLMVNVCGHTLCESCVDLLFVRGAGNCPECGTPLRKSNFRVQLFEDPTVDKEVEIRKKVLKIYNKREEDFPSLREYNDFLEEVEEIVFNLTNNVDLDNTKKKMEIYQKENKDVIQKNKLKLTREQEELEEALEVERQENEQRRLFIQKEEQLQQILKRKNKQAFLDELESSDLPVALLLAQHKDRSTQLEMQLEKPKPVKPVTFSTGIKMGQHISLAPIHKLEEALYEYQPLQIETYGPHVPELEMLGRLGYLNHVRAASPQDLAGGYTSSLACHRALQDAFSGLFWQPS

Take `COc1ccccc1-c1ccnc(Nc2ccccc2)c1` [Compound B1, 4-(2-Methoxyphenyl)-N-phenylpyridin-2-amine]: the values for the IC50 (on CDK9; in test [1]) were 1000 to 10000 nM and greater than 10000 nM, respectively.

Turning to `COc1ccccc1-c1ccnc(Nc2cccc(S(N)(=O)=O)c2)c1` [Compound D1, 3-[(4-(2-Methoxyphenyl)pyridin-2-yl)amino]benzenesulfonamide], the IC50 on CDK9 is less than 100 nM; on CDK7/CyclinH/MAT1, greater than 10000 nM; in test [1], 100 to 1000 nM.

For `COc1cc(F)ccc1-c1ccnc(Nc2cccc(NS(C)(=O)=O)c2)c1` [Compound J1, N-[3-((4-(4-Fluoro-2-methoxyphenyl)pyridin-2-yl)amino)phenyl]-methanesulfonamide], the IC50 at CDK9 is less than 100 nM; on CDK7/CyclinH/MAT1, greater than 10000 nM.

For `COc1cc(F)ccc1-c1ccnc(Nc2cccc(CS(=O)(=O)N(C)C)c2)c1` [Compound G3, 1-[3-((4-(4-Fluoro-2-methoxyphenyl)pyridin-2-yl)amino)phenyl]-N,N-dimethylmethanesulfonamide], the IC50 on CDK9 is less than 100 nM; at CDK7/CyclinH/MAT1, greater than 10000 nM.

Consider `COc1ccccc1-c1ccnc(Nc2ccc(S(N)(=O)=O)cc2)c1` [Compound E1, 4-[(4-(2-Methoxyphenyl)pyridin-2-yl)amino]benzenesulfonamide], for which the IC50 at CDK9 is 100 to 1000 nM; at CDK7/CyclinH/MAT1 it was greater than 10000 nM; in test [1], 1000 to 10000 nM.

For the compound `COc1ccccc1-c1ccnc(Nc2cccc(S(C)(=O)=O)c2)c1` [Compound F1, 4-(2-Methoxyphenyl)-N-(3-(methylsulfonyl)phenyl)pyridin-2-amine], the figures for the IC50 (at CDK9; in test [1]) were less than 100 nM and 1000 to 10000 nM, respectively.

Turning to `COc1ccccc1-c1ccnc(Nc2cccc([N+](=O)[O-])c2)c1` [Compound C1, 4-(2-Methoxyphenyl)-N-(3-nitrophenyl)pyridin-2-amine], the IC50 (on CDK9; in test [1]) was 1000 to 10000 nM throughout.

As to `COc1cc(F)ccc1-c1ccnc(Nc2cccc(CS(N)(=O)=O)c2)c1` [Compound G1, [3-((4-(4-Fluoro-2-methoxyphenyl)pyridin-2-yl)amino)phenyl]-methanesulfonamide], the 50% inhibitory concentration (IC50) on CDK9 is less than 100 nM; at CDK7/CyclinH/MAT1 it was greater than 10000 nM; in test [1] it was 100 to 1000 nM.

As for `COc1cc(F)ccc1-c1ccnc(Nc2cccc(NC(C)=O)c2)c1` [Compound J2, N-[3-((4-(4-Fluoro-2-methoxyphenyl)pyridin-2-yl)amino)phenyl]-acetamide], the concentration for half-maximal inhibition (IC50) at CDK9 is less than 100 nM; at CDK7/CyclinH/MAT1 it was greater than 10000 nM.

On to `CCCNS(=O)(=O)Cc1cccc(Nc2cc(-c3ccc(F)cc3OC)ccn2)c1` [Compound K1, 1-[3-((4-(4-Fluoro-2-methoxyphenyl)pyridin-2-yl)amino)phenyl]-N-propylmethanesulfonamide], for which the concentration for half-maximal inhibition (IC50) at CDK9 is 100 to 1000 nM; at CDK7/CyclinH/MAT1, greater than 10000 nM.
